In patent publication US10105411B2, “Compositions and methods for modulating AT2R activity” (Novopyxis, Inc., priority 2014, dated 2018):
Entries after “also recorded” stand apart in the source; their conditions may differ. Where no end group is shown, it is not given here.

What was measured:
PC-12 cells = assay: Survival/viability of serum-starved PC-12 cells (MTS cell proliferation assay); assay type: cell-based
Method: (§1) Serum-starvation reduced survival of SH-SY5Y cells and PC-12 cells. […] Treatment of this cell line with 300 nM of NP-6AK agonist led to increased cell viability by over 30% relative to treatment with native ligand of AT2R Ang II (300 nM). […] AT2R activation by NP-6AK agonist promotes cell survival whereas AT2R activation by other ligands are harmful to it.

[1] = system: mouse HL-1 cardiomyocytes; assay: Cell index (CI) cell survival, Xcelligence Real-Time Cell Analyzer, HL-1 cells; assay type: cell-based; details: for increase in cell index (CI): serum starved HL-1 cells
Method: (§2) Thus, an NP-6AK agonist comprising the sequence Lys-Pro-Leu-Lys-Pro-Trp (SEQ ID NO. 2) promoted cell survival across mouse HL-1 cardiomyocytes and human smooth vascular muscle cells by acting through AT2R activation. Cell survival was assessed by measurement of cell index (CI) using a Xcelligence™ Real-Time Cell Analyzer (Westburg B V, Leusden, N L) to quantitatively determine the effect of different treatments on cell survival, adhesion, and proliferation. […] CGP42112A and the NP-6AK agonist (300 nM) increased CI of serum starved HL-1 cells in the order CGP42112A (≥14%), NP-6AK (≥25%). Increase in CI is a direct effect of AT2R activation. This was verified by addition of an AT2R antagonist, PD123319 (Sigma-Aldrich, Co. LLC, St. Louis, Mo.). In the presence of this antagonist, the cell survival otherwise observed using the NP-6AK agonist was not present.

MCL-1 [2] = assay: MCL-1 expression in human vascular smooth muscle cells (CAVSMCs); assay type: cell-based; details: for effect of AT2R antagonist on NP-6AK-mediated MCL-1 upregulation: antagonist with NP-6AK agonist; for MCL-1 expression (in words): human CAVSMCs, FIG. 1B
Description: (§3) Cells treated with the NP-6AK agonist generated higher MCL-1 upregulation relative to those treated with a partial agonist such as CGP42112A.

MCL-1 [3] = assay: MCL-1 expression in HL-1 cardiomyocytes; assay type: cell-based, mouse; details: for effect of AT2R antagonist on NP-6AK-mediated MCL-1 upregulation: antagonist with NP-6AK agonist; for MCL-1 expression (in words): female mouse HL-1 cardiomyocytes, FIG. 1A
Description: as §3

SH-SY5Y cells [4] = assay: Survival of serum-starved SH-SY5Y cells (MTS cell proliferation assay); assay type: cell-based; details: serum starvation
Method: as §1

Zucker Obese (ZO) rats = assay: Zucker Obese rat diabetic/cardiovascular model, 2 weeks subcutaneous treatment; assay type: in vivo
Method: Zucker Obese (ZO) rats (Charles River Laboratories, Inc., Wilmington, Mass.), a diabetic animal model displaying signs of cardiovascular disease were treated for 2 weeks (dose of 0.9 mg/kg/day) via subcutaneous injection with an NP-6AK agonist and assessed for several markers of cardiovascular health including blood markers and structural parameters of the heart. Controls were ZO rats that received saline.

SH-SY5Y cells [5] = assay: Neurite elongation in SH-SY5Y cells; assay type: cell-based; details: FIG. 3A
[6] = system: primary murine embryonic cortical neurons; assay: Neuroprotection of primary cortical neurons under nutrient deprivation; assay type: cell-based; details: 300 nm agonist; glucose-free Locke's medium; 14 DIV; p<0.05
Method: For nutrient deprivation, primary cortical neurons (14 DIV) were incubated in glucose-free Locke's medium with or without […] NP-6AK agonist.
Ex vivo neurons were obtained and treated with an NP-6AK agonist in different conditions to assess neuroprotective properties. Normal primary murine embryonic cortical neurons in culture (14 days in vitro) were challenged with nutrient deprivation by incubation in glucose-free Locke's medium (Schnapf et al. (1990)). These cultures were then supplemented with 300 nM NP-6AK agonist or no NP-6AK agonist.

MCL-1 [7] = assay: MCL-1 expression in SH-SY5Y cells (immunofluorescence staining); assay type: cell-based
Description: The SH-SY5Y cell line is a neuronal cell line with both dopaminergic and adrenergic receptors.

[8] = system: human smooth vascular muscle cells; assay: Cell index (CI) cell survival, Xcelligence Real-Time Cell Analyzer, human smooth vascular muscle cells; assay type: cell-based
Method: as §2

[9] = 0.9 mg/kg/day s.c., vs saline ZO rats

AngII: native ligand of AT2R
cell survival relative to cells treated with AT2R antagonist PD123319 (PC-12 cells; MTS assay): more detrimental

Cc1cc(Cn2cnc3c2C[C@@H](C(=O)O)N(C(=O)C(c2ccccc2)c2ccccc2)C3)ccc1N(C)C [PD123319]
cell survival otherwise observed using the NP-6AK agonist, in presence of the AT2R antagonist ([1]; antagonist added to NP-6AK agonist treatment): not present | protective effects of the NP-6AK agonist when treated with AT2R antagonist (PC-12 cells; PC-12 cells): the protective effects of the NP-6AK agonist were lost | effect of AT2R antagonist on NP-6AK-mediated MCL-1 upregulation (MCL-1 [2]): MCL-1 upregulation was not observed | effect of AT2R antagonist on NP-6AK-mediated MCL-1 upregulation (MCL-1 [2]; listed as PD): prevents NP-6AK-mediated up regulation of MCL-1 | effect of AT2R antagonist on NP-6AK-mediated MCL-1 upregulation (MCL-1 [3]): MCL-1 upregulation was not observed | effect of AT2R antagonist on NP-6AK-mediated MCL-1 upregulation (MCL-1 [3]; listed as PD): prevents NP-6AK-mediated up regulation of MCL-1

CGP42112A
increase in cell index (CI) ([1]; 300 nM): ≥ 14% | cell survival relative to cells treated with AT2R antagonist PD123319 (PC-12 cells; MTS assay): more detrimental | MCL-1 expression (in words) (MCL-1 [2]): unable to increase MCL-1 | MCL-1 expression (in words) (MCL-1 [3]): unable to increase MCL-1

KPLKPW [NP-6AK agonist, AT2R agonist hexapeptide of the NP-6AK class]
survival and proliferation compared with CGP42112A (300 nM) ([1]; 300 nM, cell index): significantly better survival and more proliferation | increase in cell index (CI) ([1]; 300 nM): ≥ 25% | survival rate (SH-SY5Y cells [4]): higher survival rate | increased HDL on average (Zucker Obese (ZO) rats; [9]): 12% | reduced triglycerides (fasting plasma) (Zucker Obese (ZO) rats; [9]): ~50% | reduced urine N-acetyl-beta-A-glucosaminidase (Zucker Obese (ZO) rats; [9]): ~60% | reduced urine protein (Zucker Obese (ZO) rats; [9]): ~68% | Echocardiography/Strain analysis E/E (Zucker Obese (ZO) rats; male ZO rat, 0.9 mg/kg/day): 26 ± 2.1 | Echocardiography/Strain analysis MPI (Zucker Obese (ZO) rats; male ZO rat, 0.9 mg/kg/day): 0.389 ± 0.02 | Plasma Profile HDL (Zucker Obese (ZO) rats; male ZO rat, 0.9 mg/kg/day): 73 ± 2.8 mg/dL | Plasma Profile Triglycerides (Zucker Obese (ZO) rats; male ZO rat, 0.9 mg/kg/day): 610 ± 109 mg/dL | Urine Profile NA6 (Zucker Obese (ZO) rats; male ZO rat, 0.9 mg/kg/day): 10.9 ± 1.5 mg/dL | Urine Profile Protein (Zucker Obese (ZO) rats; male ZO rat, 0.9 mg/kg/day): 445 ± 86.4 mg/dL | Echocardiography/Strain analysis Circumferential Strain (Zucker Obese (ZO) rats; male ZO rat, 0.9 mg/kg/day, endocardium, short axis view): −26.11 ± 2.47 | increased survival relative to treatment with 300 nM CGP42112A (PC-12 cells; MTS assay): over 70% | survival rate (PC-12 cells; serum starvation): higher survival rate | neurite elongation (SH-SY5Y cells [5]): promotes neurite elongation | increased activity compared with negative controls [6]: 60% | increase in MCL-1 expression (MCL-1 [7]; 300 nM, agonist alone, 24 hours, FIG. 2): 2 fold | MCL-1 expression after treatment with Rapamycin (MCL-1 [7]; agonist added after Rapamycin, FIG. 3B): reverses rapamycin-mediated suppression of MCL-1 expression; also recorded: able to recover MCL-1 expression | higher MCL-1 expression (MCL-1 [2]; 300 nM, human smooth vascular muscle cells, FIG. 1): 22% | MCL-1 expression (in words) (MCL-1 [2]): increases MCL-1 expression | survival and proliferation compared with CGP42112A (300 nM) [8]: significantly better survival and more proliferation | higher MCL-1 expression (MCL-1 [3]; 300 nM, cardiomyocytes, FIG. 1): 45% | MCL-1 expression (in words) (MCL-1 [3]): increases MCL-1 expression
